# Source: ChEMBL document CHEMBL1137947, “Novel nevirapine-like inhibitors with improved activity against NNRTI-resistant HIV: 8-heteroarylthiomethyldipyridodiazepinone derivatives” (Bioorg Med Chem Lett, 2004)
# Legend:
# [1] = system: Human immunodeficiency virus 1; assay: Effective concentration against wild-type HIV-1; type: functional, organism-based
# [2] = system: Human immunodeficiency virus 1; assay: Effective concentration against mutant K103N/Y181C of HIV-1; type: functional, organism-based
# [3] = system: Human immunodeficiency virus 1; assay: Inhibitory activity against HIV-1 mutant strain K103N/Y181C; type: functional, organism-based
# [4] = molecular target: Human immunodeficiency virus type 1 reverse transcriptase (Human immunodeficiency virus 1, UniProt Q72547); assay: Inhibitory activity against wild type reverse transcriptase (WT RT) of HIV-1
# Cytochrome P450 1A2 [5] = molecular target: T1, Cytochrome P450 1A2 (Homo sapiens, UniProt P05177); assay: Inhibition of CYP450 (Cytochrome P450) 1A2; type: ADME
# T1 sequence (P05177 whole entry): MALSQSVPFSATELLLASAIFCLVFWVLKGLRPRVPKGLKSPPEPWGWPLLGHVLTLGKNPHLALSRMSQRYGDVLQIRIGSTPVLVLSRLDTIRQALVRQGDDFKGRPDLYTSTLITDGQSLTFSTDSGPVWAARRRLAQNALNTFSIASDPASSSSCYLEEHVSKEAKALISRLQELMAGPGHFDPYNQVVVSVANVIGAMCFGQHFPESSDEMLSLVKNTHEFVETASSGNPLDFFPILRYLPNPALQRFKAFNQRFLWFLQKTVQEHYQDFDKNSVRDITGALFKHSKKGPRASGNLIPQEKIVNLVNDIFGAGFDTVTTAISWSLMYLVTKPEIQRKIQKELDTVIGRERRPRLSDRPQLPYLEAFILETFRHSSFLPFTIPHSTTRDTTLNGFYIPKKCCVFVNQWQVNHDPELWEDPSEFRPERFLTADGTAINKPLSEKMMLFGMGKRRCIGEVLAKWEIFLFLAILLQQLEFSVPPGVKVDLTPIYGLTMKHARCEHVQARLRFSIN
# Cytochrome P450 2D6 [6] = molecular target: T2, Cytochrome P450 2D6 (Homo sapiens, UniProt P10635); assay: Inhibition of CYP450 (Cytochrome P450) 2D6; type: ADME
# T2 sequence (P10635 whole entry): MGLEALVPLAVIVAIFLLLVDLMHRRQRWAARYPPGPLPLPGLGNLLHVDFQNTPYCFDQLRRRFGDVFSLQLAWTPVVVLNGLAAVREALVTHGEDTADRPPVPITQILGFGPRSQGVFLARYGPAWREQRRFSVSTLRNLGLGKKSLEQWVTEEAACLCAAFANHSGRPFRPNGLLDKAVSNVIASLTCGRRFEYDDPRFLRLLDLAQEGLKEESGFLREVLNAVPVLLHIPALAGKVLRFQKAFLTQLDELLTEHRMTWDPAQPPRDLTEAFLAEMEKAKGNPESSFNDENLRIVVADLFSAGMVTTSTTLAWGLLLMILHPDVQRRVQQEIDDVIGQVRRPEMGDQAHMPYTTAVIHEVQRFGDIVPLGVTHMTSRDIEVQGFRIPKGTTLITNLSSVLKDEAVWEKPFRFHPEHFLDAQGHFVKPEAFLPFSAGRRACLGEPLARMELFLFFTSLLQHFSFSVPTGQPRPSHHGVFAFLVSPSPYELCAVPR
# Homo sapiens = species on record: Homo sapiens; assay: Half-life for oxidative metabolic stability was determined using male human; conditions: in vitro
# Cytochrome P450 2C19 = Cytochrome P450 2C19 (Homo sapiens, UniProt P33261); assay: Inhibition of cytochrome P450 2C19; type: ADME
# Chain of Cytochrome P450 2C19 (P33261 whole entry): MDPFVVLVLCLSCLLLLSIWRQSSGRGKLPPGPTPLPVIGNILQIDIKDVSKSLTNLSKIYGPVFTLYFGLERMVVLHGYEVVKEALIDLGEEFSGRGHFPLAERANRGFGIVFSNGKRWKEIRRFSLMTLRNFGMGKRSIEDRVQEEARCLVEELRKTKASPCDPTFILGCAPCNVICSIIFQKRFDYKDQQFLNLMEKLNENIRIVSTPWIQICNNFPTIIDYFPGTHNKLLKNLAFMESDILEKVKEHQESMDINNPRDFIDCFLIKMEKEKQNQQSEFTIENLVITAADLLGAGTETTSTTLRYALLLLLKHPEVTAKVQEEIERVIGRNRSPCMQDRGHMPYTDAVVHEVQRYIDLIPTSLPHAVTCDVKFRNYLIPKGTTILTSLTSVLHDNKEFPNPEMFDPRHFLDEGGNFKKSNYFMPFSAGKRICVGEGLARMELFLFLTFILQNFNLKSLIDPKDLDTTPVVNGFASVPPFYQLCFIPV
# Cytochrome P450 3A4 [7] = molecular target: T3, Cytochrome P450 3A4 (Homo sapiens, UniProt P08684); assay: Inhibition of CYP450 (Cytochrome P450) 3A4 with fluorogenic substrate BQ; type: ADME
# T3 sequence (P08684 whole entry): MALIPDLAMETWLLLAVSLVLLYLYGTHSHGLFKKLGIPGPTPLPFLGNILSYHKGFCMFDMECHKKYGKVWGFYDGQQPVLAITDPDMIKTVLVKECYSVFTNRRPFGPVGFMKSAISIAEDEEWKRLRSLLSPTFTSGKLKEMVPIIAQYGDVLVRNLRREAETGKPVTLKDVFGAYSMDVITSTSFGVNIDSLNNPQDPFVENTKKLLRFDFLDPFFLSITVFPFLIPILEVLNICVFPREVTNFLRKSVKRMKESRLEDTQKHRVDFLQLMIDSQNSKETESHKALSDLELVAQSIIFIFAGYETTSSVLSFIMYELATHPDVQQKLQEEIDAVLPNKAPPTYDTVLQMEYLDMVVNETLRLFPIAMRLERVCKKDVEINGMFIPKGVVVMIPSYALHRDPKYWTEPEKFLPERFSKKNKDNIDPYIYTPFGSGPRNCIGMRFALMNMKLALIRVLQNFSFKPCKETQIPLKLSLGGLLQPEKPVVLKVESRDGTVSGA
# Cytochrome P450 3A4 [8] = molecular target: T3, Cytochrome P450 3A4; assay: Inhibition of CYP450 (Cytochrome P450) 3A4 with fluorogenic substrate BFC; type: ADME
# Cytochrome P450 2C9 [9] = molecular target: T4, Cytochrome P450 2C9 (Homo sapiens, UniProt P11712); assay: Inhibition of CYP450 (Cytochrome P450) 2C9; type: ADME
# T4 sequence (P11712 whole entry): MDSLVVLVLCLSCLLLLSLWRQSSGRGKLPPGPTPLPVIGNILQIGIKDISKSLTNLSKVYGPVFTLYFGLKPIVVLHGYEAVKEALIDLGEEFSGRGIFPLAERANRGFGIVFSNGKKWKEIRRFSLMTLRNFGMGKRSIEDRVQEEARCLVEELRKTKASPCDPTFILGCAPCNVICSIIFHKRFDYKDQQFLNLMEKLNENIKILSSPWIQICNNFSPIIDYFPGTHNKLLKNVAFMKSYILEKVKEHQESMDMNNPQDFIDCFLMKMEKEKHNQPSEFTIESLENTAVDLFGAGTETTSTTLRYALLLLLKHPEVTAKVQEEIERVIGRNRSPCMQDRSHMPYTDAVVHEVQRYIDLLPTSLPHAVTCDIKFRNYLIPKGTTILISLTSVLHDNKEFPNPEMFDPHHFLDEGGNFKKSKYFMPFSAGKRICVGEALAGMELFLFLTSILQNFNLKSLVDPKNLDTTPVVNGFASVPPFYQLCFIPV
# [10] = Half-life for oxidative metabolic stability was determined using rat liver microsomes; type: ADME, Microsome
# [11] = Maximum concentration was evaluated in rats; type: ADME, organism-based; conditions: rat, in vivo
# Cytochrome P450 1A2 [12] = molecular target: T1, Cytochrome P450 1A2; assay: Inhibition of cytochrome P450 1A2; type: ADME
# Cytochrome P450 2C9 [13] = molecular target: T4, Cytochrome P450 2C9; assay: Inhibition of cytochrome P450 2C9; type: ADME
# Cytochrome P450 2D6 [14] = molecular target: T2, Cytochrome P450 2D6; assay: Inhibition of cytochrome P450 2D6; type: ADME
# [15] = Plasma clearance in rats; type: ADME, organism-based; conditions: rat
# [16] = Volume of distribution at steady state was evaluated in rats; type: ADME, organism-based; conditions: rat, in vivo; read-out: Vss
# [17] = Half-life consistent with the observed metabolic steady state in rats; type: ADME, organism-based; conditions: rat, in vivo
# [18] = Bioavailability in rats was evaluated; type: ADME, organism-based; conditions: rat, in vivo; read-out: Bioavailabiility
SMILES,EC50 [1] [µM],EC50 [2] [µM],IC50 [3] [µM],IC50 [4] [µM],also measured
Cc1cc(SCc2cnc3c(c2)C(=O)Nc2c(C)cc(Cl)nc2N3C2CC2)cc(C)n1,0.0022,0.104,0.28,0.012,
CCN1c2ncc(CSc3cc(C)nc(C)c3)cc2C(=O)Nc2c(C)ccnc21,0.00046,0.012,0.17,0.0042,IC50 (Cytochrome P450 1A2 [5]): > 30 µM; IC50 (Cytochrome P450 2D6 [6]): > 30 µM; half-life (Homo sapiens): 9 min; IC50 (Cytochrome P450 2C19): 26 µM; IC50 (Cytochrome P450 3A4 [7]): 10 µM; IC50 (Cytochrome P450 3A4 [8]): 1.6 µM; IC50 (Cytochrome P450 2C9 [9]): 7.4 µM; half-life [10]: 9 min
CCN1c2ncc(CSc3cncnc3)cc2C(=O)Nc2c(C)cc(Cl)nc21,0.0078,,5,0.026,
CCN1c2ncc(CSc3cc(C)nc(C)c3)cc2C(=O)Nc2c(C)cc(Cl)nc21,0.0012,0.014,0.06,0.007,Cmax [11]: 800 nM; IC50 (Cytochrome P450 1A2 [12]): 23 µM; IC50 (Cytochrome P450 2C9 [13]): 2.6 µM; IC50 (Cytochrome P450 2D6 [14]): 27 µM; half-life (Homo sapiens): 7 min; clearance [15]: 57 mL/min/kg; IC50 (Cytochrome P450 2C19): 4.2 µM; IC50 (Cytochrome P450 3A4 [7]): 8.1 µM; Vd [16]: 4.68 L/kg; half-life [17]: 90 min; IC50 (Cytochrome P450 3A4 [8]): 2.3 µM; half-life [10]: 4 min; bioavailability [18]: 76%
CCN1c2ncc(CSc3ccncc3C)cc2C(=O)Nc2c(C)cc(Cl)nc21,0.0031,,1.64,0.011,
CCN1c2ncc(CSc3ccnc(C)c3)cc2C(=O)Nc2c(C)cc(Cl)nc21,0.0034,,0.31,0.027,
CCN1c2ncc(CSc3ccncc3)cc2C(=O)N(C)c2ccc(Cl)nc21,0.00031,,0.026,0.003,
CCN1c2ncc(CSc3cc(C)nc(C)c3)cc2C(=O)Nc2c(C)cc(F)nc21,0.001,0.021,0.12,0.0069,IC50 (Cytochrome P450 1A2 [12]): 26 µM; IC50 (Cytochrome P450 2C9 [13]): 4.5 µM; IC50 (Cytochrome P450 2D6 [6]): 27 µM; half-life (Homo sapiens): 5 min; IC50 (Cytochrome P450 2C19): 5.4 µM; IC50 (Cytochrome P450 3A4 [7]): 10 µM; IC50 (Cytochrome P450 3A4 [8]): 2.5 µM; half-life [10]: 5 min
CCN1c2ncc(CSc3nc4ccccc4o3)cc2C(=O)Nc2c(C)cc(Cl)nc21,0.0027,,0.23,0.008,
CCN1c2ncc(CSc3ccncc3)cc2C(=O)Nc2c(C)cc(Cl)nc21,0.00048,,0.08,0.0022,
CCN1c2ncc(CSc3nc(C)cc(C)n3)cc2C(=O)Nc2c(C)cc(Cl)nc21,0.0015,,0.32,0.006,
